From article PMC5218480 (PLoS ONE, 2017)

System: MV-4-11 cells
Assay: Gene expression microarray analysis (Affymetrix PrimeView) and GSEA
Type: cell-based, human
Design: RFU PODN (11730768_x_at) / Fold change /veh PODN (11730768_x_at) / RFU LINC00158 (11744669_a_at) / Fold change /veh LINC00158 (11744669_a_at) / RFU DUSP10 (11751237_a_at) / Fold change /veh DUSP10 (11751237_a_at) / RFU ID3 (11757404_x_at) / Fold change /veh ID3 (11757404_x_at) / RFU PLEKHG5 (11737974_s_at) / Fold change /veh PLEKHG5 (11737974_s_at) / RFU LRRC4B (11730491_at) / Fold change /veh LRRC4B (11730491_at) / RFU GIMAP4 (11747438_a_at) / Fold change /veh GIMAP4 (11747438_a_at) / RFU KRT8 (11758183_x_at) / Fold change /veh KRT8 (11758183_x_at) / RFU CNN1 (11734310_a_at) / Fold change /veh CNN1 (11734310_a_at) / RFU VPS37D (11726825_at) / Fold change /veh VPS37D (11726825_at) / RFU C10orf10 (11716522_x_at) / Fold change /veh C10orf10 (11716522_x_at) / RFU KIR2DL2 /// KIR2DL4 /// KIR2DL5A /// KIR2DL5B /// KIR2DS1 /// KIR2DS2 /// KIR2DS3 /// KIR2DS4 /// KIR3DL3 /// KIR3DL3 /// KIR3DS1 (11738374_at) / Fold change /veh KIR2DL2 /// KIR2DL4 /// KIR2DL5A /// KIR2DL5B /// KIR2DS1 /// KIR2DS2 /// KIR2DS3 /// KIR2DS4 /// KIR3DL3 /// KIR3DL3 /// KIR3DS1 (11738374_at) / RFU C1QL1 (11718748_at) / Fold change /veh C1QL1 (11718748_at) / RFU TMPRSS4 (11747572_a_at) / Fold change /veh TMPRSS4 (11747572_a_at) / RFU HAMP (11756126_x_at) / Fold change /veh HAMP (11756126_x_at) / RFU RNFT2 (11725882_a_at) / Fold change /veh RNFT2 (11725882_a_at) / RFU NR4A2 (11747474_a_at) / Fold change /veh NR4A2 (11747474_a_at) / RFU ABCC12 (11746883_a_at) / Fold change /veh ABCC12 (11746883_a_at) / RFU TMEM136 (11760407_x_at) / Fold change /veh TMEM136 (11760407_x_at) / RFU CLDN22 /// WWC2 (11732394_at) / Fold change /veh CLDN22 /// WWC2 (11732394_at) / RFU HLA-DPB1 (11760878_x_at) / Fold change /veh HLA-DPB1 (11760878_x_at) / RFU SPINT1 (11716480_a_at) / Fold change /veh SPINT1 (11716480_a_at) / RFU GAP43 (11754022_s_at) / Fold change /veh GAP43 (11754022_s_at) / RFU A4GNT (11735810_at) / Fold change /veh A4GNT (11735810_at) / RFU PRB3 (11715151_x_at) / Fold change /veh PRB3 (11715151_x_at) / RFU TUBB4B (11761932_at) / Fold change /veh TUBB4B (11761932_at) / RFU CAPN14 (11732068_a_at) / Fold change /veh CAPN14 (11732068_a_at) / RFU TMCC2 (11721928_a_at) / Fold change /veh TMCC2 (11721928_a_at) / RFU IRGQ (11745062_a_at) / Fold change /veh IRGQ (11745062_a_at) / RFU FAM174B (11720279_a_at) / Fold change /veh FAM174B (11720279_a_at) / RFU TMPRSS4 (11748680_a_at) / Fold change /veh TMPRSS4 (11748680_a_at) / RFU FAM212B (11763350_a_at) / Fold change /veh FAM212B (11763350_a_at) / RFU PLEKHG5 (11743358_a_at) / Fold change /veh PLEKHG5 (11743358_a_at) / RFU ZSCAN30 (11745921_a_at) / Fold change /veh ZSCAN30 (11745921_a_at) / RFU CMKLR1 (11741424_a_at) / Fold change /veh CMKLR1 (11741424_a_at) / RFU LOC101060620 /// MAPK8IP1 (11723275_at) / Fold change /veh LOC101060620 /// MAPK8IP1 (11723275_at) / RFU SPTSSB (11747773_x_at) / Fold change /veh SPTSSB (11747773_x_at) / RFU PRSS12 (11739890_at) / Fold change /veh PRSS12 (11739890_at) / RFU BIN1 (11741810_x_at) / Fold change /veh BIN1 (11741810_x_at) / RFU WNT11 (11732464_a_at) / Fold change /veh WNT11 (11732464_a_at) / RFU C10orf10 (11716521_a_at) / Fold change /veh C10orf10 (11716521_a_at) / RFU C5orf56 (11738089_at) / Fold change /veh C5orf56 (11738089_at) / RFU CYB561 (11721691_x_at) / Fold change /veh CYB561 (11721691_x_at) / RFU ANKRD19P (11752326_a_at) / Fold change /veh ANKRD19P (11752326_a_at) / RFU OR2T12 /// OR2T33 /// OR2T8 (11738714_s_at) / Fold change /veh OR2T12 /// OR2T33 /// OR2T8 (11738714_s_at) / RFU VCAN (11748164_a_at) / Fold change /veh VCAN (11748164_a_at) / RFU JSRP1 (11732532_at) / Fold change /veh JSRP1 (11732532_at) / RFU KRTAP10-11 (11738290_x_at) / Fold change /veh KRTAP10-11 (11738290_x_at) / RFU MYO3A (11730013_a_at) / Fold change /veh MYO3A (11730013_a_at) / RFU EBF3 (11725865_a_at) / Fold change /veh EBF3 (11725865_a_at) / RFU CAMK2N1 (11719241_x_at) / Fold change /veh CAMK2N1 (11719241_x_at) / RFU C5orf56 (11738088_a_at) / Fold change /veh C5orf56 (11738088_a_at) / RFU OLFML3 (11715873_a_at) / Fold change /veh OLFML3 (11715873_a_at) / RFU LOC100653217 /// NTM (11731650_a_at) / Fold change /veh LOC100653217 /// NTM (11731650_a_at) / RFU MAPK11 (11762145_a_at) / Fold change /veh MAPK11 (11762145_a_at) / RFU FIZ1 (11724087_x_at) / Fold change /veh FIZ1 (11724087_x_at) / RFU OASL (11726364_x_at) / Fold change /veh OASL (11726364_x_at) / RFU SOX15 (11748057_x_at) / Fold change /veh SOX15 (11748057_x_at) / RFU CD79A (11719716_a_at) / Fold change /veh CD79A (11719716_a_at) / RFU HIST1H1D (11736915_at) / Fold change /veh HIST1H1D (11736915_at) / RFU CASKIN2 (11723855_a_at) / Fold change /veh CASKIN2 (11723855_a_at) / RFU LOC730098 (11760151_x_at) / Fold change /veh LOC730098 (11760151_x_at) / RFU OR4N2 (11742367_at) / Fold change /veh OR4N2 (11742367_at) / RFU PRRT2 (11749266_a_at) / Fold change /veh PRRT2 (11749266_a_at) / RFU SNX32 (11753110_a_at) / Fold change /veh SNX32 (11753110_a_at) / RFU CDHR5 (11726645_a_at) / Fold change /veh CDHR5 (11726645_a_at) / RFU RCAN1 (11760418_a_at) / Fold change /veh RCAN1 (11760418_a_at) / RFU FAM167A (11723789_a_at) / Fold change /veh FAM167A (11723789_a_at) / RFU FAM26E (11764081_at) / Fold change /veh FAM26E (11764081_at) / RFU ISYNA1 (11749810_s_at) / Fold change /veh ISYNA1 (11749810_s_at) / RFU ACY1 (11761880_at) / Fold change /veh ACY1 (11761880_at) / RFU 11764098_at / Fold change /veh 11764098_at / RFU SAMD14 (11745864_x_at) / Fold change /veh SAMD14 (11745864_x_at) / RFU NPB (11741838_a_at) / Fold change /veh NPB (11741838_a_at) / RFU TMPRSS6 (11731388_a_at) / Fold change /veh TMPRSS6 (11731388_a_at) / RFU KRTAP10-2 (11738614_at) / Fold change /veh KRTAP10-2 (11738614_at) / RFU ARHGAP8 /// PRR5-ARHGAP8 (11727945_x_at) / Fold change /veh ARHGAP8 /// PRR5-ARHGAP8 (11727945_x_at) / RFU KRTAP5-7 /// NADSYN1 (11734609_at) / Fold change /veh KRTAP5-7 /// NADSYN1 (11734609_at) / RFU RASL12 (11751679_a_at) / Fold change /veh RASL12 (11751679_a_at) / RFU CDKN2B (11736163_a_at) / Fold change /veh CDKN2B (11736163_a_at) / RFU PRF1 (11729649_at) / Fold change /veh PRF1 (11729649_at) / RFU, ZNF638 /// ZNF638-IT1 / Fold change vs veh, ZNF638 /// ZNF638-IT1 / RFU, PANK3 / Fold change vs veh, PANK3 / RFU, SH3YL1 / Fold change vs veh, SH3YL1 / RFU, ZEB2 / Fold change vs veh, ZEB2 / RFU, NRIP1 / Fold change vs veh, NRIP1 / RFU, PTTG1IP / Fold change vs veh, PTTG1IP / RFU, CAPN2 / Fold change vs veh, CAPN2 / RFU, MED14 / Fold change vs veh, MED14 / RFU, SNORA58 / Fold change vs veh, SNORA58 / RFU, C1orf63 / Fold change vs veh, C1orf63 / RFU, LRRFIP1 / Fold change vs veh, LRRFIP1 / RFU, NDUFAF7 / Fold change vs veh, NDUFAF7 / RFU, SLC12A2 / Fold change vs veh, SLC12A2 / RFU, IBTK / Fold change vs veh, IBTK / RFU, ESF1 / Fold change vs veh, ESF1 / Fold change vs veh, TMEM50B / RFU, TAOK1 / Fold change vs veh, TAOK1 / RFU, ACBD3 / Fold change vs veh, ACBD3 / RFU, TMA16 / Fold change vs veh, TMA16 / RFU, RWDD3 / Fold change vs veh, RWDD3 / RFU, BCAT1 / Fold change vs veh, BCAT1 / RFU, EDEM3 / Fold change vs veh, EDEM3 / RFU, TMEM33 / Fold change vs veh, TMEM33 / RFU, WDR75 / Fold change vs veh, WDR75 / RFU, AHCTF1 / Fold change vs veh, AHCTF1 / RFU, TFRC / Fold change vs veh, TFRC / RFU, ZDHHC17 / Fold change vs veh, ZDHHC17 / RFU, NOM1 / Fold change vs veh, NOM1 / RFU, ARL8B / Fold change vs veh, ARL8B / RFU, ZBTB11 / Fold change vs veh, ZBTB11 / RFU, TAMM41 / Fold change vs veh, TAMM41 / RFU, KIAA1704 /// LOC100996395 / Fold change vs veh, KIAA1704 /// LOC100996395 / RFU, ING1 / Fold change vs veh, ING1 / RFU, TRMT61B / Fold change vs veh, TRMT61B / RFU, FUBP3 / Fold change vs veh, FUBP3 / RFU, TP53 / Fold change vs veh, TP53 / RFU, TNKS2 / Fold change vs veh, TNKS2 / RFU, ZFP14 / Fold change vs veh, ZFP14 / RFU, ACTR2 / Fold change vs veh, ACTR2 / RFU, PPP3R1 / Fold change vs veh, PPP3R1 / RFU, PIK3R1 / Fold change vs veh, PIK3R1 / RFU, HNRNPA1 / Fold change vs veh, HNRNPA1 / RFU, RNF170 / Fold change vs veh, RNF170 / RFU, ZNF28 / Fold change vs veh, ZNF28 / RFU, RNGTT / Fold change vs veh, RNGTT / RFU, OGT / Fold change vs veh, OGT / RFU, BRD1 / Fold change vs veh, BRD1 / RFU, MARS / Fold change vs veh, MARS / RFU, ZNF655 / Fold change vs veh, ZNF655 / RFU, FAHD1 / Fold change vs veh, FAHD1 / RFU, BDP1 / Fold change vs veh, BDP1 / RFU, LRRCC1 / Fold change vs veh, LRRCC1 / RFU, ARID1A / Fold change vs veh, ARID1A / RFU, ZNF146 / Fold change vs veh, ZNF146 / RFU, ZNF330 / Fold change vs veh, ZNF330 / RFU, GPN3 / Fold change vs veh, GPN3 / RFU, C9orf123 / Fold change vs veh, C9orf123 / RFU, N4BP2L2 / Fold change vs veh, N4BP2L2 / RFU, ARFIP1 / Fold change vs veh, ARFIP1 / RFU, FAM179B / Fold change vs veh, FAM179B / RFU, BCL10 / Fold change vs veh, BCL10 / RFU, UHRF1BP1L / Fold change vs veh, UHRF1BP1L / RFU, BET1 / Fold change vs veh, BET1 / RFU, CNOT2 / Fold change vs veh, CNOT2 / RFU, ZNF268 / Fold change vs veh, ZNF268 / Fold change vs veh, ZNF507 / RFU, DGCR2 / Fold change vs veh, DGCR2 / RFU, WDSUB1 / Fold change vs veh, WDSUB1 / Fold change vs veh, HSP90B1 /// MIR3652 / RFU, ADSS / Fold change vs veh, ADSS / RFU, GK / Fold change vs veh, GK / RFU, ZNF148 / Fold change vs veh, ZNF148 / RFU, TAF9 / Fold change vs veh, TAF9 / RFU, SLC1A5 / Fold change vs veh, SLC1A5 / RFU, SLMO2 / Fold change vs veh, SLMO2 / RFU, ABCC4 / Fold change vs veh, ABCC4 / RFU, LOC101060439 /// RAP1B / Fold change vs veh, LOC101060439 /// RAP1B / RFU, RFX7 / Fold change vs veh, RFX7 / RFU, GTPBP10 / Fold change vs veh, GTPBP10 / RFU, CNEP1R1 / Fold change vs veh, CNEP1R1 / RFU, BIVM-ERCC5 /// ERCC5 / Fold change vs veh, BIVM-ERCC5 /// ERCC5 / RFU, ILF3 / Fold change vs veh, ILF3 / RFU 11762660_at / Fold change /veh 11762660_at / RFU VCAN (11757783_s_at) / Fold change /veh VCAN (11757783_s_at) / RFU DDX43 (11728927_at) / Fold change /veh DDX43 (11728927_at) / RFU KRT8 (11758188_x_at) / Fold change /veh KRT8 (11758188_x_at) / RFU NKD1 (11759106_at) / Fold change /veh NKD1 (11759106_at) / RFU SRD5A1 (11742802_a_at) / Fold change /veh SRD5A1 (11742802_a_at) / RFU TPSAB1 /// TPSB2 (11721975_s_at) / Fold change /veh TPSAB1 /// TPSB2 (11721975_s_at) / RFU GSTM3 (11746129_a_at) / Fold change /veh GSTM3 (11746129_a_at) / RFU IL23R (11737362_x_at) / Fold change /veh IL23R (11737362_x_at) / RFU TMEM51 (11727254_a_at) / Fold change /veh TMEM51 (11727254_a_at) / RFU PIWIL2 (11732686_x_at) / Fold change /veh PIWIL2 (11732686_x_at) / RFU ORM1 (11744905_x_at) / Fold change /veh ORM1 (11744905_x_at) / RFU CCDC152 (11743942_at) / Fold change /veh CCDC152 (11743942_at) / RFU ECM1 (11717891_a_at) / Fold change /veh ECM1 (11717891_a_at) / RFU IL23R (11748794_a_at) / Fold change /veh IL23R (11748794_a_at) / RFU TNFAIP8L3 (11732012_x_at) / Fold change /veh TNFAIP8L3 (11732012_x_at) / RFU MBOAT4 (11741988_at) / Fold change /veh MBOAT4 (11741988_at) / RFU 11764193_at / Fold change /veh 11764193_at / RFU TMEM53 (11763286_at) / Fold change /veh TMEM53 (11763286_at) / RFU MAGEB2 (11727129_at) / Fold change /veh MAGEB2 (11727129_at) / RFU TMEM200A (11744735_a_at) / Fold change /veh TMEM200A (11744735_a_at) / RFU CCDC152 (11751479_a_at) / Fold change /veh CCDC152 (11751479_a_at) / RFU FAM211A (11726209_a_at) / Fold change /veh FAM211A (11726209_a_at) / RFU RGS16 (11746705_a_at) / Fold change /veh RGS16 (11746705_a_at) / RFU VCAN (11755009_s_at) / Fold change /veh VCAN (11755009_s_at) / RFU RHOB (11743442_s_at) / Fold change /veh RHOB (11743442_s_at) / RFU RGS16 (11720943_a_at) / Fold change /veh RGS16 (11720943_a_at) / RFU RGS16 (11720944_at) / Fold change /veh RGS16 (11720944_at) / RFU, VPS4B / Fold change vs veh, VPS4B / RFU, CREB1 / Fold change vs veh, CREB1 / RFU, DNAJC13 / Fold change vs veh, DNAJC13 / RFU, GNAQ / Fold change vs veh, GNAQ / RFU, CDK5R1 / Fold change vs veh, CDK5R1 / RFU, ZRANB3 / Fold change vs veh, ZRANB3 / RFU, CUL4A / Fold change vs veh, CUL4A / RFU, CCNY / Fold change vs veh, CCNY / RFU, UFL1 / Fold change vs veh, UFL1 / RFU, COG3 / Fold change vs veh, COG3 / RFU, DIAPH2 / Fold change vs veh, DIAPH2 / RFU, SKA2 / Fold change vs veh, SKA2 / RFU, AFF3 / Fold change vs veh, AFF3 / RFU, LMF1 / Fold change vs veh, LMF1 / RFU, IPO11 / Fold change vs veh, IPO11 / RFU, DFFB / Fold change vs veh, DFFB / RFU, FOXP1 / Fold change vs veh, FOXP1 / RFU, CARD8 / Fold change vs veh, CARD8 / RFU, STRN3 / Fold change vs veh, STRN3 / RFU, ADK / Fold change vs veh, ADK / RFU, RASSF2 / Fold change vs veh, RASSF2 / RFU, WIPF1 / Fold change vs veh, WIPF1 / RFU, LARP1B / Fold change vs veh, LARP1B / RFU, RASA1 / Fold change vs veh, RASA1 / RFU, RB1 / Fold change vs veh, RB1 / RFU, PPFIA1 / Fold change vs veh, PPFIA1 / RFU, MAT2A / Fold change vs veh, MAT2A / RFU, CCT5 / Fold change vs veh, CCT5 / RFU, WDR92 / Fold change vs veh, WDR92 / RFU, CUX1 / Fold change vs veh, CUX1 / RFU, TTC7A / Fold change vs veh, TTC7A / RFU, TMEM135 / Fold change vs veh, TMEM135 / RFU, DEPTOR / Fold change vs veh, DEPTOR / RFU, CPM / Fold change vs veh, CPM / RFU, DNAJB6 / Fold change vs veh, DNAJB6 / RFU, CACNA2D3 / Fold change vs veh, CACNA2D3 / RFU, DTX4 / Fold change vs veh, DTX4 / RFU, TFCP2 / Fold change vs veh, TFCP2 / RFU, GMCL1 /// GMCL1P1 / Fold change vs veh, GMCL1 /// GMCL1P1 / RFU, AEBP2 / Fold change vs veh, AEBP2 / RFU, SNHG1 /// SNORD22 /// SNORD25 /// SNORD26 /// SNORD27 /// SNORD28 /// SNORD29 /// SNORD31 / Fold change vs veh, SNHG1 /// SNORD22 /// SNORD25 /// SNORD26 /// SNORD27 /// SNORD28 /// SNORD29 /// SNORD31 / Fold change (Aza/veh), C12orf56 (ProbeSet 11735607_a_at) / Fold change (ACY-1035/veh), C12orf56 (ProbeSet 11735607_a_at) / Fold change (Aza/veh), FGFR1OP (ProbeSet 11751329_s_at) / Fold change (ACY-1035/veh), FGFR1OP (ProbeSet 11751329_s_at) / Fold change (Aza/veh), VPS36 (ProbeSet 11739960_a_at) / Fold change (ACY-1035/veh), VPS36 (ProbeSet 11739960_a_at) / RFU SYPL1 (11715823_x_at) / Fold change /veh SYPL1 (11715823_x_at) / RFU IGFBP7 (11715501_s_at) / Fold change /veh IGFBP7 (11715501_s_at) / RFU REEP3 (11722064_at) / Fold change /veh REEP3 (11722064_at) / RFU IGLL1 (11728026_x_at) / Fold change /veh IGLL1 (11728026_x_at): dose or concentration left out as unconfirmed
Conditions: MV-4-11 cells, 48 hours

Nc1ncn([C@@H]2O[C@H](CO)[C@@H](O)[C@H]2O)c(=O)n1 [azacitidine]
RFU HLA-DPB1 (11760878_x_at): 15.97 RFU
